Results reported in patent US20240174637A1, “DEGRADERS OF GRK2 AND USES THEREOF” (Sonata Therapeutics, Inc., priority 2021, published 2024).

Columns and labels:
GRK2 [1] = target: T1, GRK2 (Homo sapiens, UniProt P25098); experiment: Second ADPGlo GRK2 Inhibition Assay (Example 3); type: biochemical; conditions: ADP-Glo, 20 μM ATP; read-out: Second ADPGlo Enzymatic GRK2 Assay: IC50 (nM) (Example 3)
T1 sequence (P25098 1-689): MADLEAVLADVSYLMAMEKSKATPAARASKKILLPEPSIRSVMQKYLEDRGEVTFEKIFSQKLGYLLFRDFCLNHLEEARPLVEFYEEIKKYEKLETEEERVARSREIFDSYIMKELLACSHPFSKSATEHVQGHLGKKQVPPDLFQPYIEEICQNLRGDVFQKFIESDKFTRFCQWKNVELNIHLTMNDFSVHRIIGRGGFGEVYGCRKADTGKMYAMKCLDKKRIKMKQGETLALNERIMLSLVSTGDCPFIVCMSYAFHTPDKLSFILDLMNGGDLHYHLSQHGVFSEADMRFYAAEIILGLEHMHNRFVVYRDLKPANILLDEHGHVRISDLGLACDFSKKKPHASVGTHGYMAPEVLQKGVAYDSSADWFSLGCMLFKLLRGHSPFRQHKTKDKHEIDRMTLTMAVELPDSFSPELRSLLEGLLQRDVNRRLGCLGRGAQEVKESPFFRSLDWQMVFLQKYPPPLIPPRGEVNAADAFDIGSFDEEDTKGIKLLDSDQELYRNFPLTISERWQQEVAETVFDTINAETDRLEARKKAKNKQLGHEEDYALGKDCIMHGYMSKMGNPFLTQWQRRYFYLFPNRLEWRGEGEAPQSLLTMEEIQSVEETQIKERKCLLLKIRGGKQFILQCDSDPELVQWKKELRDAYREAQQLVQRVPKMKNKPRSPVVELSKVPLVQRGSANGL
Method: Assay: GRK2 (2 nM) was incubated with ATP (20 μM) and GRKtide (1.2 mg/mL) in 11 μL of assay buffer (see above) for 180 min at room temperature. Compounds were dissolved in 100% DMSO, serially diluted 3.16-fold from 100 μM with 10 concentration points and transferred as 100× into assay plate (final compounds concentration in the reaction plate from 1 μM).
Materials: GRK2 was purchased from SignalChem (Cat #A14-10G, Lot #X645-3). Substrate GRKtide was from SignalChem (Cat #G46-58, Lot #R339-6). ADP-Glo Kinase Assay from Promega (Cat #V9102). Assay buffer consisted of 20 mM HEPES (pH7.5), 20 mM MgCl2, 0.01% Tween-20, 0.05 mM DDT. 384-well white plates were from Corning (Cat #4513).
HTS protocol: Add 5.5 μL of 2× substrate-enzyme mix into all columns except of 1-2 and 24 of reaction plate. Spin 15 seconds at 200 g. Transfer 1 ul of compounds from the plate with serial dilutions (384 well plate with 22 uL of compound in columns 3-22/DMSO solution 1-2,23-24) to Dilution plate (384 well plate with 49 uL of buffer with 2×40 μM ATP). After mixing transfer 5.5 ul from Dilution plate to Reaction plate (to 5.5 μL of 2× substrate-enzyme mix). Spin 15 seconds at 200 g and incubate for 180 min at room temperature with sealing. Add 3 μL ADP-Glo reagent to all the wells. Spin 15 seconds at 200 g and incubate for 40 min at room temperature. Add 6 μL Detection solution to all the wells. Incubate for 30 min at room temperature. Read plate using ClarioStar Plus (BMG).
Data Analysis: Data were analyzed in GraphPad Prism 5.0.2. Each HTS plate contains compounds in columns 3-22, controls (enzyme, no compound) in column 23, and blanks (no enzyme) in columns 2. HTS percent inhibition was calculated for each compound from the signal in luminescence units and the mean of the plate controls and the mean of the plate blanks using the following equation: % Inhibition=100*(1-(signal-blank mean)/(control mean-blank mean)).

PAXF1657 KO Clone #4 = experiment: 7-day cellular proliferation assay (CellTiter-Glo), PAXF1657 KO Clone #4; type: cell-based; conditions: 168 h, 7-day, read-out: 7-day proliferation assay: IC50 GeoMean (uM) [Cell Line: PAXF1657 KO Clone #4]
Outline: (§1)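 Isogenic PAXF1657 pairs differing in GRK2 level (stable cDNA overexpression or CRISPR knockout, each with matched control) are seeded and allowed to attach overnight. Inhibitors span 30 μM-0.0002 μM in 0.3% DMSO for 3 plus 4 days at 37° C, 5% CO2, with a medium change between.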

PAXF1657 EV = experiment: 7-day cellular proliferation assay (CellTiter-Glo), PAXF1657 EV; type: cell-based; conditions: 168 h, 7-day, read-out: 7-day proliferation assay: IC50 GeoMean (uM) [Cell Line: PAXF1657 EV]
Outline: as §1

GRK2 [2] = target: T1, GRK2; experiment: GRK2 Degradation Assay and Western Blot in PAXF1657 cells; type: cell-based; parameters: endogenous in cells; host or cells: PAXF1657; conditions: for inhibition at 0.3 µM: read-out: % GRK2 degradation at 0.3 uM in PAXF1657 EV (24 hrs); for inhibition at 1 µM: read-out: % GRK2 degradation at 1 uM in PAXF1657 EV (24 hrs); for inhibition at 3 µM: read-out: % GRK2 degradation at 3 uM in PAXF1657 EV (24 hrs)
Outline: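 GRK2 degradation judged by immunoblot: NP40 lysates separated by SDS-PAGE and probed for GRK2 and β-actin, with HRP/ECL detection. Lysates came from PAXF1657 cells exposed to 0–10 μM compound for 6–24 h after reaching 70% confluency.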

**Q.** For `Cn1c(CNc2cccc(C(=O)NCc3cccc(OCCCCCCOCCOCCOCCCC(=O)Nc4cccc5c4CN(C4CCC(=O)NC4=O)C5=O)c3)c2)nnc1-c1ccncn1` (stereo not shown) [Compound D56], which IC50 (GRK2 [1]) is on record?
**A.** < 100 nM

**Q.** And the IC50 (PAXF1657 KO Clone #4)?
**A.** > 10 µM

**Q.** What about the IC50 (PAXF1657 EV) of the same compound?
**A.** 1 to 10 µM

**Q.** And the inhibition at 0.3 µM (GRK2 [2]; PAXF1657 EV, 24 hrs)?
**A.** 25%

**Q.** And the inhibition at 1 µM (GRK2 [2]; PAXF1657 EV, 24 hrs)?
**A.** 52%

**Q.** What about the inhibition at 3 µM (GRK2 [2]; PAXF1657 EV, 24 hrs) of the same compound?
**A.** 64%

**Q.** `Cn1c(CNc2cccc(C(=O)NCc3cccc(OCCCCCCCn4cc(CCCCC(=O)Nc5cccc6c5CN(C5CCC(=O)NC5=O)C6=O)nn4)c3)c2)nnc1-c1ccncn1` (stereo not shown) [Compound D60] was tested. Which IC50 (GRK2 [1]) did it give?
**A.** < 100 nM

**Q.** And the IC50 (PAXF1657 KO Clone #4)?
**A.** > 10 µM

**Q.** What about the IC50 (PAXF1657 EV) of the same compound?
**A.** > 10 µM

**Q.** And the inhibition at 0.3 µM (GRK2 [2]; PAXF1657 EV, 24 hrs)?
**A.** -3%

**Q.** And the inhibition at 1 µM (GRK2 [2]; PAXF1657 EV, 24 hrs)?
**A.** 13%

**Q.** And the inhibition at 3 µM (GRK2 [2]; PAXF1657 EV, 24 hrs)?
**A.** 69%

**Q.** What does the source list for `Cn1c(CNc2cccc(C(=O)NCc3cccc(OCCCCCCn4cc(CCCCC(=O)Nc5cccc6c5CN(C5CCC(=O)NC5=O)C6=O)nn4)c3)c2)nnc1-c1ccncn1` (stereo not shown) [Compound D62]?
**A.** IC50 (GRK2 [1]): < 100 nM; IC50 (PAXF1657 KO Clone #4): > 10 µM; IC50 (PAXF1657 EV): > 10 µM; inhibition at 0.3 µM (GRK2 [2]; PAXF1657 EV, 24 hrs): 35%; inhibition at 1 µM (GRK2 [2]; PAXF1657 EV, 24 hrs): 56%; inhibition at 3 µM (GRK2 [2]; PAXF1657 EV, 24 hrs): 75%

**Q.** Which results are given for `Cn1c(CNc2cccc(C(=O)NCc3ccc(OCCCCCCOCCOCCOCCCCCC(=O)Nc4cccc5c4CN(C4CCC(=O)NC4=O)C5=O)cc3)c2)nnc1-c1ccncn1` (stereo not shown) [Compound D65]?
**A.** IC50 (GRK2 [1]): < 100 nM; IC50 (PAXF1657 KO Clone #4): > 10 µM; IC50 (PAXF1657 EV): < 1 µM; inhibition at 0.3 µM (GRK2 [2]; PAXF1657 EV, 24 hrs): 36%; inhibition at 1 µM (GRK2 [2]; PAXF1657 EV, 24 hrs): 64%; inhibition at 3 µM (GRK2 [2]; PAXF1657 EV, 24 hrs): 67%

**Q.** How did the IC50 (GRK2 [1]) turn out when `Cn1c(CNc2cccc(C(=O)NCc3cccc(OCCCC(=O)Nc4cccc5c4CN(C4CCC(=O)NC4=O)C5=O)c3)c2)nnc1-c1ccncn1` (stereo not shown) [Compound D70] was run?
**A.** < 100 nM

**Q.** `Cn1c(CNc2cccc(C(=O)NCc3cccc(OCCCCCCOCCOCCOCCCCCC(=O)Nc4cccc5c4CN(C4CCC(=O)NC4=O)C5)c3)c2)nnc1-c1ccncn1` (stereo not shown) [Compound D73] was tested. Which IC50 (GRK2 [1]) did it give?
**A.** < 100 nM

**Q.** What about the IC50 (PAXF1657 KO Clone #4) of the same compound?
**A.** > 10 µM

**Q.** And the IC50 (PAXF1657 EV)?
**A.** 1 to 10 µM

**Q.** What about the “% GRK2 degradation at 0.03 uM in PAXF1657 EV (24 hrs)” value (GRK2 [2]; 0.03 uM, PAXF1657 EV, 24 hrs) of the same compound?
**A.** 15%

**Q.** What about the “% GRK2 degradation at 0.1 uM in PAXF1657 EV (24 hrs)” value (GRK2 [2]; 0.1 uM, PAXF1657 EV, 24 hrs) of the same compound?
**A.** 28%

**Q.** And the inhibition at 0.3 µM (GRK2 [2]; PAXF1657 EV, 24 hrs)?
**A.** 48%

**Q.** And the inhibition at 1 µM (GRK2 [2]; PAXF1657 EV, 24 hrs)?
**A.** 67%

**Q.** What about the inhibition at 3 µM (GRK2 [2]; PAXF1657 EV, 24 hrs) of the same compound?
**A.** 76%

**Q.** And the “% GRK2 degradation at 10 uM in PAXF1657 EV (24 hrs)” value (GRK2 [2]; 10 uM, PAXF1657 EV, 24 hrs)?
**A.** 76%

**Q.** What about the “GRK2 degradation, dose dependence (FIGS. 1A-1D)” value (GRK2 [2]; 24-hour treatment in PAXF1657 cells) of the same compound?
**A.** Dose dependent

**Q.** With `Cc1ncsc1-c1ccc(CNC(=O)[C@@H]2C[C@@H](O)CN2C(=O)[C@@H](NC(=O)CCCCCOCCOCCCCCCOc2cccc(CNC(=O)c3cccc(NCc4nnc(-c5ccncn5)n4C)c3)c2)C(C)(C)C)cc1` [Compound D76] as the compound, how does the IC50 (GRK2 [1]) read?
**A.** < 100 nM

**Q.** Which results are given for `Cc1ncsc1-c1ccc(CNC(=O)[C@@H]2C[C@@H](O)CN2C(=O)[C@@H](NC(=O)CCCOCCOCCOCCCCCCOc2cccc(CNC(=O)c3cccc(NCc4nnc(-c5ccncn5)n4C)c3)c2)C(C)(C)C)cc1` [Compound D77]?
**A.** IC50 (GRK2 [1]): < 100 nM; IC50 (PAXF1657 KO Clone #4): > 10 µM; IC50 (PAXF1657 EV): < 1 µM; inhibition at 0.3 µM (GRK2 [2]; PAXF1657 EV, 24 hrs): -4%; inhibition at 1 µM (GRK2 [2]; PAXF1657 EV, 24 hrs): -1%; inhibition at 3 µM (GRK2 [2]; PAXF1657 EV, 24 hrs): -7%

**Q.** How did the IC50 (GRK2 [1]) turn out when `COc1cc(OCCNC(=O)CCCCCC(=O)N[C@H](C(=O)C2C[C@H](O)C[C@H]2C(=O)NCc2ccc(-c3scnc3C)cc2)C(C)(C)C)ccc1CNC(=O)c1cccc(NCc2nnc(-c3ccncn3)n2C)c1` (stereo partly shown) [Compound D93] was run?
**A.** < 100 nM

**Q.** `COc1cc(OCC(=O)NCCOCCOCCNC(=O)COCC(=O)N[C@H](C(=O)N2C[C@H](O)C[C@H]2C(=O)NCc2ccc(-c3scnc3C)cc2)C(C)(C)C)ccc1CNC(=O)c1cccc(NCc2nnc(-c3ccncn3)n2C)c1` [Compound D94] was tested. Which IC50 (GRK2 [1]) did it give?
**A.** 100 to 1000 nM

**Q.** Which IC50 (GRK2 [1]) does the source give for `COc1cc(OCC(=O)NCCOCCOCC(=O)N[C@H](C(=O)N2C[C@H](O)C[C@H]2C(=O)NCc2ccc(-c3scnc3C)cc2)C(C)(C)C)ccc1CNC(=O)c1cccc(NCc2nnc(-c3ccncn3)n2C)c1` [Compound D95] here?
**A.** < 100 nM

**Q.** For `Cc1ncsc1-c1ccc(CNC(=O)[C@@H]2C[C@@H](O)CN2C(=O)[C@@H](NC(=O)CCCCCOCCCCCOCCCCCCOc2cccc(CNC(=O)c3cccc(NCc4nnc(-c5ccncn5)n4C)c3)c2)C(C)(C)C)cc1` [Compound D98], which IC50 (GRK2 [1]) is on record?
**A.** < 100 nM
